Columns and labels:
[1] = Brain tissue and plasma curcumin levels in rats after intravenous bolus injection (HPLC); assay type: in vivo, Sprague-Dawley rats; conditions: intravenous curcumin formulations
[2] = test system: PC12 cells; conditions: cultured PC12 cells; cited from earlier work
[3] = test system: 6-OHDA toxicity; conditions: rat; cited from earlier work
[4] = test system: chronic unpredictable mild stress (CUMS); conditions: CUMS rats; cited from earlier work
[5] = test system: Alzheimer's Disease mice (ALCL3 orally and D-galactose IP for 90 days); conditions: cited from earlier work
[6] = test system: murine multipotent neural progenitor cells (NPC); conditions: cited from earlier work
[7] = test system: sodium arsenite neuro-behavioral neurotransmission toxicity; conditions: rats, arsenite 20 mg/kg for 28 days; oral curcumin 100 mg/kg daily × 28 days; cited from earlier work
[8] = test system: homocysteine directly injected into the hippocampus; conditions: intraperitoneal curcumin; cited from earlier work

In the case of `COc1cc(C=CC(=O)CC(=O)C=Cc2ccc(O)c(OC)c2)ccc1O` [curcumin, 1,7-bis(4-hydroxy-3-methoxyphenyl)-1,6-heptadiene-3,5-dione], the “Curcumin detectible in the hippocampus, brainstem and striatum, share of dose” value [1] is given as “less than 0.5 % of the total injected dose”, the “Apoptosis induced by AlCl3” value [2] is given as “inhibits apoptosis” and the “Effect on 6-OHDA toxicity in striatum and Substantia Nigrum” value [3] is given as “protects”. For the same compound, the “Effect on chronic unpredictable mild stress (CUMS)” value [4] was “improves chronic unpredictable mild stress”, the “Memory ability, step-through test” value [5] was “improves the memory ability” and the “Concentration that decreases proliferation of NPCs and cancer cells” value [6] was greater than 10 µM. The “Concentration that inhibits neurogenesis and neuroplasticity” value ([6]; hippocampus stem and neuronal progenitor cells, high concentration) was 10 µM, the “Concentration that enhances / stimulates hippocampal neurogenesis” value ([6]; hippocampus stem and neuronal progenitor cells, low concentration) was 500 nM and the “Concentration that increases NPC proliferation” value ([6]; ×24-48 h, NPC but not tumor cells) was 0.1 to 0.5 µM. The “Effect on arsenite-induced deleterious effects” value [7] was “counteracted” and the “Activity against homocysteine injected into the hippocampus” value [8] was “neuroprotective activity”.
